Experimental data: patent publication US20150031996A1, “SEMICONDUCTING POLYMER NANOPARTICLES AS PHOTOACOUSTIC MOLECULAR IMAGING PROBES” (The Board of Trustees of the Leland Stanford Junior …, priority 2013, published 2015)

Test: Kinetic study of ROS-mediated degradation of IR775S (fluorescence at 800 nm)
Type: physicochemical
Details: presence of peroxynitrite (ONOO^−) and hypochlorite (ClO^−), 2 μM, 1×PBS pH=7.4
Procedure: FIGS. 26A and 26B illustrate a kinetic study of ROS-mediated degradation of 1R7755 by detecting its fluorescence decrease at 800 nm after addition of ROS.
FIG. 26B illustrates a time course of the fluorescence of 1R775S at 800 nm after addition of indicated ROS (FIG. 26B top: ONOO^−, ClO^−; FIG. 26B bottom: ^1O2 and H2O2) in 1×PBS (pH=7.4). [1R775]=1 μg/mL. [ROS]=2 μM.

SMILES: CN1C(=CC=C2CCCC(C=CC3=[N+](C)c4ccccc4C3(C)C)=C2SCCC(=O)O)C(C)(C)c2ccccc21.[O-][Cl+3]([O-])([O-])[O-] [1R775S, 2-[4′-(β-carboxyethylthio)-7′-(1″,3″,3″-trimethylindolenine)-3′,5′-trimethyleneheptatrien-1-yl]-1,3,3-trimethylindolenium perchlorate]
- degradation by ROS: nearly instant degradation
